In article PMC5988308, “Rhodanine derivatives as potent anti-HIV and anti-HSV microbicides” (PLoS ONE, 2018):
Like-named read-outs stand apart in the source and are kept apart here.

Columns and labels:
HSV-1 = HSV-1 plaque reduction assay on Vero cells; assay type: cell-based; conditions: Human alphaherpesvirus 1, Vero cells, read-out: HSV-1 EC50
Experimental: (§1) Clinical isolates of HSV-1 and HSV-2 were kindly provided by Prof. M. Pistello, University of Pisa, Italy. HSV-1 and HSV-2 strains were propagated and titrated by plaque assay on Vero cells. A HSV-2 strain with phenotypic resistance to acyclovir was generated by serial passage in the presence of increasing concentrations of acyclovir, as previously described.
(§2) The effect of the rhodanine derivatives on HSV infection was evaluated by plaque reduction assay. Vero cells were pre-plated 24 h in advance in 24-well plates at a density of […]. Increasing concentrations of compounds were mixed with HSV-2 (MOI 0.001 pfu/cell) or HSV-2 acyclovir resistant (MOI 0.001) or HSV-1 (MOI 0.0005) or and incubated for 1 hour at 37°C. The mixtures were subsequently added to the cells, which were then incubated at 37°C for 2 h. The virus inoculum was then removed and the cells washed and overlaid with a medium containing 1.2% methylcellulose (Sigma). After further incubation at 37°C for 24 h (HSV-2 and HSV-2 R Acy) or 48 h (HSV-1), cells were fixed and stained with 0.1% crystal violet in 20% ethanol and viral plaques counted. The effective concentration producing 50% reduction (EC50) and 90% reduction (EC90) in plaque formation was determined using Prism software by comparing drug-treated with wells treated with medium and solvent. The selectivity index (SI) was calculated by dividing the CC50 by the EC50 value.
(§3) All results are presented as the mean values from three independent experiments. The EC50 values for inhibition curves were calculated by regression analysis using the software GraphPad Prism (GraphPad Software, San Diego, California, U.S.A.) by fitting a variable slope-sigmoidal dose–response curve. Acyclovir was purchased from Sigma Aldrich (Milan, Italy).

[1] = tested on: HSV-2 acyclovir resistant; assay: HSV-2 acyclovir resistant plaque reduction assay on Vero cells; assay type: cell-based; conditions: Human alphaherpesvirus 2, Vero, read-out: HSV-2 acyclovir resistant EC50
Experimental: as §1
as §2, with “The virus inoculum was then removed and the cells washed and overlaid with a medium containing 1.2% methylcellulose (Sigma).” left out, “The effective concentration producing 50% reduction (EC50) and 90% reduction (EC90) in plaque formation was determined using Prism software by comparing drug-treated with wells treated with medium and solvent.” left out
as §3, with “Acyclovir was purchased from Sigma Aldrich (Milan, Italy).” left out

HSV-2 = HSV-2 plaque reduction assay on Vero cells; assay type: cell-based; conditions: Vero cells
Experimental: as §1, §2, §3

[2] = Vero cell viability (MTS assay); assay type: cell-based; conditions: African green monkey
Experimental: African green monkey fibroblastoid kidney cells (Vero, ATCC CCL-81) were grown as monolayers in Eagle's minimal essential medium (MEM) (Gibco/BRL, Gaithersburg, MD) supplemented with 10% heat inactivated fetal calf serum (FCS) and 1% antibiotic-antimycotic solution (Zell Shield, Minerva Biolabs GmbH, Berlin, Germany).
Cell viability was measured using the MTS [3-(4,5-dimethylthiazol-2-yl)-5-(3-carboxymethoxyphenyl)-2-(4-sulfophenyl)-2H-tetrazolium] assay. Cell cultures were seeded in 96-well plates were incubated with different concentrations of compounds in triplicate under the same experimental conditions described for the antiviral assays. Cell viability was determined using the CellTiter 96 Proliferation Assay Kit (Promega, Madison, WI, USA) according to the manufacturer's instructions. Absorbances were measured using a Microplate Reader (Model 680, BIORAD) at 490 nm. The effect on cell viability at different concentrations of the compound was expressed as a percentage, by comparing absorbances of treated cells with those of cells incubated with culture medium and equal volumes of vehicle.

HSA = conditions: cited from earlier work
[3] = Cytotoxicity on TZM-bl cells (XTT test); assay type: cell-based; conditions: human, read-out: Citotoxicity (TZM-bl cells) CC50
Experimental: (§4) The human TZM-bl indicator cell line (obtained from the NIH AIDS reagents program, cat. Nr 8129 (www.aidsreagent.org) and maintained at 37°C and 5% CO2 in Dulbecco’s modified Eagle’s medium (DMEM) medium containing 10% fetal bovine serum, 50 μg/mL penicillin, and 50 μg/mL streptomycin. The HIV-1 laboratory strains NL(AD8) (NIH AIDS reagents program, cat.nr 11346), NL4.3 (NIH AIDS reagents program, cat. Nr. 114) were titrated as previously reported. Briefly, serial 5-fold dilutions of each virus were made in quadruplicate wells in 96-well culture plates, in a total volume of 100 μL of growth medium (DMEM), for a total of 8 dilution steps. Freshly trypsinized cells (20,000 cells in 100 μL of growth medium containing 75 μg/mL DEAE-dextran) were added to each well, and the plates were incubated at 37°C in a humidified 5% CO2-95% air environment. After 48 h of incubation, the medium was removed and viral infection was quantified using a β-galactosidase (CPRG) assay (Roche). Twenty thousand TZM-bl cells/well were seeded in 96-well plates in complete DMEM supplemented with 30 μg/mL DEAE-dextran (Sigma-Aldrich). Three hundred times the 50% tissue culture infective dose (TCID50)/mL of each strain was pretreated for 1 h at 37°C with six serial dilutions ([…] to 3.2 nM) of each compound and then added to the cells, as previously described. Vehicle (0.1% dimethyl sulfoxide [DMSO])-treated cells served as a negative control. […] After 2 days, viral infection was quantified using a CPRG assay (Roche). The inhibitory curves were fitted by nonlinear regression, allowing for the calculation of the 50% inhibitory concentration (IC50) using the Prism software. To evaluate the cell toxicity of the compounds, the metabolic XTT [2,3-bis-(2-methoxy-4-nitro-5-sulfophenyl)-2H-tetrazolium-5-carboxanilide] test (Sigma-Aldrich) was performed according to the manufacturer’s instructions.

[4] = tested on: recombinant HIV-1 integrase Q148H, G140S; assay: Antiviral activity on human CD4+ T lymphocytes, integrase mutant Q148H, G140S; assay type: cell-based; conditions: Human immunodeficiency virus 1, read-out: Q148H, G140S EC50
[5] = tested on: HIV-1 AD8 (CCR5-tropic strain); assay: Antiviral activity on TZM-bl cells infected with HIV-1 AD8 (CPRG assay); assay type: cell-based; conditions: for alteration of antiviral activity when pre-incubated with serum: HIV-1 laboratory strains
Experimental: as §4

HIV-1 NL 4.3 WT = assay: Antiviral activity on human CD4+ T lymphocytes, NL4.3 WT; assay type: cell-based; conditions: Human immunodeficiency virus 1, read-out: NL 4.3 WT EC50
Experimental: (§5) The antiviral activity and cytotoxicity of compounds 2, 9e and 9f was tested also on freshly purified human CD4^+ T lymphocytes obtained from healthy blood donors (informed consent available) as described previously on HIV laboratory strain NL4.3 and AD8 [33, 34].

[6] = tested on: HIV-1 NL4.3 (CXCR4-tropic strain); assay: Antiviral activity on TZM-bl cells infected with HIV-1 NL4.3 (CPRG assay); assay type: cell-based
Experimental: After 48 h of incubation, the medium was removed and viral infection was quantified using a β-galactosidase (CPRG) assay (Roche). Twenty thousand TZM-bl cells/well were seeded in 96-well plates in complete DMEM supplemented with 30 μg/mL DEAE-dextran (Sigma-Aldrich). […] Vehicle (0.1% dimethyl sulfoxide [DMSO])-treated cells served as a negative control. […] After 2 days, viral infection was quantified using a CPRG assay (Roche). […] To evaluate the cell toxicity of the compounds, the metabolic XTT [2,3-bis-(2-methoxy-4-nitro-5-sulfophenyl)-2H-tetrazolium-5-carboxanilide] test (Sigma-Aldrich) was performed according to the manufacturer’s instructions.

[7] = tested on: recombinant HIV-1 integrase Y143R; assay: Antiviral activity on human CD4+ T lymphocytes, integrase mutant Y143R; assay type: cell-based; conditions: Human immunodeficiency virus 1, read-out: Y143R EC50
HIV-1 AD8 WT = assay: Antiviral activity on human CD4+ T lymphocytes, AD8 WT; assay type: cell-based; conditions: Human immunodeficiency virus 1, read-out: AD8 WT EC50
Experimental: as §5

NL4.3 HIV strain = assay: Antiviral activity in microbicide gel formulation, transwell experiment, TZM-bl cells; assay type: cell-based, HIV-1; conditions: Human immunodeficiency virus 1, gel at 50%
Experimental: All the semi-solid formulations were prepared adding at the pre-gel solution reported above hydroxyethyl cellulose (HEC) (1.8% w/v). In all samples, 0.2% v/v propionic acid was added to aqueous solution in order to preserve form bacteria and mold contamination. HEC was dispersed in the pre-gel solution at 25°C under magnetic stirring, overnight.
Antiviral activity of compound 2 on NL4.3 HIV strain was evaluated also in a gel formulation. To reproduce more physiological conditions, TZM-bl cells were seeded into transwells and the gel was applied onto the cell monolayer at 50% fixed concentration with serial drug dilutions as previously described. Briefly, 4x10^4 TZM-bl cells were plated into each transwell apical chamber of a 24-well plate (pore size 3μm and diameter 6,5 mm, Corning) containing medium in the bottom plate and cultured overnight. For efficacy testing, 60 TCID50 of virus was added to each apical well in the presence of 100 μL of compound 2 gel, tenofovir gel or blank gel at the final drug concentrations of 25μM, 10 μM and 5 μM. Inhibition of infection was determined as previously based on deviations from blank gel.

HIV-1 AD8 [8] = assay: Inhibition of antiviral activity by fetal bovine serum (TZM-bl, AD8); assay type: cell-based; conditions: FBS 0% to 10%
Experimental: To evaluate the binding of compounds to plasma proteins also in a cell based assay, the infection with the HIV laboratory strain AD8 was performed in absence or in presence of different concentrations of Fetal Bovine Serum (FBS): 2%, 5% and 10%. The representative compound 2 was pre-incubated at different concentrations ranging from 10 μM to 3.2 nM with 300 TCID50 /mL of AD8 in DMEM supplemented with 50 μg/mL penicillin, 50 μg/mL streptomycin, 30 μg/mL DEAE-dextran and FBS at the concentration described above. Maraviroc was used as control. After an hour the mixture was added to 40.000 TZM-bl cells/well plated in a 96-well plate and after two days the infection was quantified using a CPRG assay (Roche) as previously described.

HIV-1 AD8 [9] = assay: Inhibition of antiviral activity by purified bovine serum albumin (TZM-bl, AD8); assay type: cell-based
Experimental: To confirm the binding of compound 2 to serum albumin, infection was performed in presence of different concentrations of purified bovine serum albumin (BSA, Sigma Aldrich) starting from the concentration that is usually present in FBS serum (35 mg/mL, 1X) and increasing to a five-fold concentration (175 mg/mL) up to a ten-fold concentration (350 mg/mL). […] After one hour, the mixture was added to 40.000 TZM-bl cells/well plated in DMEM supplemented with 50 μg/mL penicillin, 50 μg/mL streptomycin, 30 μg/mL DEAE-dextran and 10% FBS in a 96-well plate. After two days the infection was evaluated through a CPRG assay.

`Nc1nc2c(ncn2COCCO)c(=O)[nH]1` [ACV, Acyclovir, reference compound] gave an EC50 (HSV-1) of 168 ± 41.3 nM, an EC50 [1] of 31.9 ± 1.16 µM and an EC50 (HSV-2; Human alphaherpesvirus 2, plaque reduction, compound pre-incubated with virus 1 h at 37°C, read-out: HSV-2 EC50) of 622 ± 21.1 nM. For the same compound, the “SI (CC50/EC50), HSV-2” value (HSV-2) was 1177, the CC50 ([2]; Citotoxicity (Vero cells) CC50) was 732 ± 46.2 µM and the CC50 ([2]; Vero cell CC50 (HSV-1)) was 698 ± 72.5 µM. It also gave a CC50 ([2]; Vero cell CC50 (HSV-2 acyclovir resistant rows)) of 732 ± 46.2 µM.
In the case of `CC(=O)Nc1ccc(O)cc1` [Paracetamol], the Kd (HSA) is listed as 1.28 ± 0.69 mM.
In the case of `Cc1nnc(C(=O)NC(C)(C)c2nc(C(=O)NCc3ccc(F)cc3)c(O)c(=O)n2C)o1` [RAL, raltegravir, reference compound], the CC50 [3] is reported as greater than 20 µM, the EC50 [4] is reported as 800 ± 12 nM and the EC50 ([5]; Human immunodeficiency virus 1, TZM-bl, read-out: AD8 EC50) is reported as 6.5 ± 1 nM. For the same compound, the EC50 ([5]; Human immunodeficiency virus 1, TZM-bl, read-out: AD8 EC50 a) was 13.5 ± 2 nM, the “alteration of antiviral activity when pre-incubated with serum” value ([5]; TZM-bl cells) was “did not show any alteration of antiviral activity” and the EC50 (HIV-1 NL 4.3 WT) was 3 ± 2 nM. The EC50 ([6]; Human immunodeficiency virus 1, NL43, TZM-bl, read-out: NL4-3 EC50) was 0.021 ± 0.003 µM, the EC50 [7] was 460 ± 10 nM and the EC50 (HIV-1 AD8 WT) was 2 ± 3 nM.
`C[C@H](Cn1cnc2c(N)ncnc21)OCP(=O)(O)O` [tenofovir, reference compound] showed an EC50 (NL4.3 HIV strain) of 4.5 µM.
For maraviroc [reference compound], the “alteration of antiviral activity when pre-incubated with serum” value ([5]; TZM-bl cells) was “did not show any alteration of antiviral activity”, the EC50 ([5]; TZM-bl cells, pre-incubation in complete medium containing fetal bovine serum (FBS), read-out: AD8 EC50 a) was 25.5 ± 3 nM and the EC50 ([5]; TZM-bl cells, pre-incubation with virus without serum, read-out: AD8 EC50) was 36.7 ± 7 nM. For the same compound, the “effect of FBS concentration on antiviral activity” value (HIV-1 AD8 [8]) was “did not change”, the “influence of BSA on antiviral activity, any concentration of BSA” value (HIV-1 AD8 [9]) was “not influenced” and the EC50 ([6]; TZM-bl cells, pre-incubation in complete medium containing fetal bovine serum (FBS), read-out: NL4-3 EC50 a) was greater than 20 µM. It also gave an EC50 ([6]; TZM-bl cells, pre-incubation with virus without serum, read-out: NL4-3 EC50) greater than 20 µM.
